Source: patent US20260297065A1, “AROMATIC SUBSTITUENT-CONTAINING (HETERO) ARYL-IMIDAZOLE COMPOUND, AND PREPARATION METHOD THEREFOR AND USE THEREOF” (OPEN SOURCE THERAPEUTICS, priority 2022, published 2026)
Like-named read-outs stand apart in the source and are kept apart here.

Assays:
[1] = target: T1, soluble epoxide hydrolase (sEH) (Homo sapiens, UniProt P34913); test: in vitro biochemical activity test, sEH enzyme inhibition with EET substrate (LC-MS); details: 90 min pre-incubation at room temperature, 60 min reaction
T1 sequence (P34913 1-555): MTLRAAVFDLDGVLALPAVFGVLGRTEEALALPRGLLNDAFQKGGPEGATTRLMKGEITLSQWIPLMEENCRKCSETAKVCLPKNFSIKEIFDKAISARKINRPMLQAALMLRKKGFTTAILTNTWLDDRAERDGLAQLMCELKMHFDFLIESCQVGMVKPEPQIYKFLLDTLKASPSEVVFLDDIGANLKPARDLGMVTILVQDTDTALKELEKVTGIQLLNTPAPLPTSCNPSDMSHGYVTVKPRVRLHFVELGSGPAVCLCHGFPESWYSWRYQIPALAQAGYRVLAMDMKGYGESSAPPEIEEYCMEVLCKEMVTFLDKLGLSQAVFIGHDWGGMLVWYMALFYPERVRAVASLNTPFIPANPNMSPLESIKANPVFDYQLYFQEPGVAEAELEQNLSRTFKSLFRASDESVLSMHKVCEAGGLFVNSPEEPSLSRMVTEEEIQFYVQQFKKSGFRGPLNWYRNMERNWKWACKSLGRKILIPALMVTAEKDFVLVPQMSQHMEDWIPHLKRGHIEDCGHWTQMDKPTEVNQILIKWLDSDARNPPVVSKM

[2] = in vivo pharmacokinetics in male ICR mice, IV and PO; set-up: species or system mouse (male ICR mice); details: for clearance / half-life / AUC: mouse plasma; for clearance: read-out: intravenous injection administration (IV) C1; for AUC: read-out: Oral administration by gavage (PO) AUC; for bioavailability: plasma, mouse, PO 2 mpk, IV 1 mpk
From the text: This example relates to the evaluation of the pharmacokinetic properties of (hetero)aryl imidazole compounds containing an aromatic substituent. Specifically, this experiment evaluated the in vivo pharmacokinetic properties of some of the (hetero)aryl imidazole compounds with an aromatic substituent synthesized in Example 1 in mice under intravenous (IV) and oral (PO) administration.
The animals used in this experiment were male ICR mice, which were obtained from Beijing Weitonglihua Experimental Animal Technology Co., Ltd. IV/PO administration was performed with a single drug or a combination of drugs (Cassette, no more than five drugs), the solvent was 5% DMSO+10% Solutol+85% Saline, the compound concentration was 0.2 mg/mL, and the IV/PO administration volume was 5/10 mL/kg, respectively. The animals in the oral administration group were fasted overnight before administration and fed 4 hours after administration. After administration, blood was collected from the cheek at the set time of the experiment. About 50 μL was collected for each sample and anticoagulated with sodium heparin. After collection, the blood was placed on wet ice and centrifuged within 1 hour to separate the plasma (6000 rpm, 3 minutes, 2-8° C.). Plasma samples were stored at −80° C. before analysis. The plasma samples were diluted and analyzed by LC-MS/MS to determine the blood drug concentration data in the samples at different time points, and Phoenix WinNonlin 8.2.0 was used to calculate the pharmacokinetic parameters.

[3] = 1 mg/kg, IV, 1 mpk, read-out: intravenous injection administration (IV) T1/2 (converted)
[4] = 2 mg/kg, PO, 2 mpk, read-out: Oral administration by gavage (PO) T1/2 (converted)

| Structure (SMILES) | IC50 [1] [nM] | clearance ([2]; 1 mg/kg, IV, 1 mpk) [mL/min/kg] | half-life [2, 3] [h] | AUC ([2]; 2 mg/kg, PO, 2 mpk) [ng·h/mL] | half-life [2, 4] [h] | bioavailability ([2]; 2 mg/kg) [%] |
| --- | --- | --- | --- | --- | --- | --- |
| Cc1nc(N)ncc1-c1cc2nc(-c3ccc(C(F)(F)F)cc3)[nH]c2c(F)c1F [Compound 8, 5-(4,5-difluoro-2-(4-(trifluoro-methyl)phenyl)-1H-benzo[d]imidazol-6-yl)-4-methylpyr-imidine-2-amine] | 0.065 | 1.3 | 5.9 | 19600 | 6.4 | 76 |
| Nc1cc(Cl)c(-c2cc3[nH]c(-c4ccc(C(F)(F)F)cc4)nc3cc2F)cn1 [Compound 61, 2-(4-(trifluoromethyl)phenyl)-6-(6-amino-4-chloropyridin-3-yl)-5-fluoro-1H-benzo[d] imidazole] | – | 1 | 8.5 | 26100 | 10.2 | 83 |
